Blank lines part the entries; values can stand above or below the compound they belong to.
Assays:
in vitro [1] = details: human, liver microsomes
in vivo [2] = details: NSG, mouse, tumor, po, 125 mg/kg
in vivo [3] = details: NSG, mouse, plasma, po, 125 mg/kg
[4] = Drug concentration in plasma of NSG mouse xenografted with human SKOV3 cells at 3 mg/kg, po QD measured at 24 hrs post dose; assay type: ADME, organism-based, SK-OV-3
[5] = Drug concentration in tumor of NSG mouse xenografted with human SKOV3 cells at 3 mg/kg, po QD measured at 24 hrs post dose; assay type: ADME, organism-based, Neoplasm, SK-OV-3; details: read-out: Drug uptake
[6] = Apparent permeability across apical side to basolateral side in MDCK-MDR1 cells; assay type: ADME, cell-based, Canis lupus familiaris; details: dog
[7] = Apparent permeability across basolateral side to apical side in MDCK-MDR1 cells; assay type: ADME, cell-based, Canis lupus familiaris; details: dog
in vitro [8] = details: rat, liver microsomes
[9] = Apparent permeability across basolateral side to apical side in MDCK cells; assay type: ADME, cell-based, Canis lupus familiaris; details: dog
[10] = Apparent permeability across apical side to basolateral side in wild type MDCK cells; assay type: ADME, cell-based, Canis lupus familiaris; details: dog
in vivo [11] = details: CD1, mouse, iv, 0.3 mg/kg
in vivo [12] = details: CD1, mouse, iv, 0.3 mg/kg; remark: listed apart in the source
in vivo [13] = details: CD1, mouse, iv, 0.3 mg/kg; remark: listed apart in the source
in vivo [14] = details: CD1, mouse, iv, 0.3 mg/kg; remark: listed apart in the source
in vivo [15] = details: CD1, mouse, po, 10 mg/kg
in vivo [16] = details: CD1, mouse, po, 10 mg/kg; remark: listed apart in the source
in vivo [17] = details: NSG, mouse, tumor, po, 125 mg/kg; remark: listed apart in the source
in vivo [18] = details: NSG, mouse, plasma, po, 125 mg/kg; remark: listed apart in the source
in vivo [19] = details: CD-1, mouse, iv, 0.3 mg/kg
[20] = AUC in rat plasma at 250 mg/kg, po QD administered for 7 days; assay type: ADME, organism-based; parameters: dose 250 mg/kg, time 7 day
in vivo [21] = details: CD-1, mouse, iv, 0.3 mg/kg; remark: listed apart in the source
in vivo [22] = details: CD-1, mouse, iv, 0.3 mg/kg; remark: listed apart in the source
[23] = Drug concentration in tumor of NSG mouse xenografted with human SKOV3 cells at 125 mg/kg, po BID measured after 12 hrs by LC-MS analysis; assay type: ADME, organism-based, Neoplasm, SK-OV-3; details: read-out: Drug uptake
in vivo [24] = details: CD-1, mouse, po, 10 mg/kg
in vivo [25] = details: CD-1, mouse, iv, 0.3 mg/kg; remark: listed apart in the source
[26] = Drug concentration in plasma of NSG mouse xenografted with human SKOV3 cells at 125 mg/kg, po BID measured after 12 hrs by LC-MS analysis; assay type: ADME, organism-based, SK-OV-3
in vivo [27] = details: CD-1, mouse, po, 10 mg/kg; remark: listed apart in the source

SMILES: CCC(NC(=O)c1ccc(Cl)cc1)[C@@H]1[C@@H]2C[C@@H](Oc3ccnc4ccc(F)cc34)C[C@@H]21 (some centres undefined)
- CLint scaled at 0.75 h, 1 µM (in vitro [1]): 490 mL/min/kg

SMILES: CCC(NC(=O)c1ccc(Cl)cc1)[C@H]1[C@@H]2C[C@@H](n3cnc(C4CC4)n3)C[C@@H]21 (some centres undefined)
- CLint scaled at 0.75 h, 1 µM (in vitro [1]): 2 mL/min/kg

SMILES: C[C@@H](NC(=O)c1ccc(Cl)cc1)[C@H]1[C@@H]2C[C@@H](n3cnc4cc(F)c(F)cc43)C[C@@H]21
- concentration at 120 h (in vivo [2]): 5100 nM
- concentration at 120 h (in vivo [3]): 2800 nM

SMILES: CCC(c1nc2cc(Cl)ccc2[nH]1)[C@H]1[C@@H]2C[C@@H](c3ccnc4ccc(F)cc34)C[C@@H]21 (some centres undefined)
- CLint scaled at 0.75 h, 1 µM (in vitro [1]): 17 mL/min/kg
- concentration at 24 h [4]: 1900 nM
- concentration at 24 h [5]: 500 nM

SMILES: CCC(NC(=O)c1ccc(Cl)cc1)[C@H]1[C@@H]2C[C@H](Oc3ccnc4ccccc34)C[C@@H]21 (some centres undefined)
- CLint scaled at 0.75 h, 1 µM (in vitro [1]): 316 mL/min/kg
- Papp A→B [6]: 3.7 ×10⁻⁶ cm/s
- Papp B→A [7]: 2.07 ×10⁻⁶ cm/s
- CLint scaled at 0.75 h, 1 µM (in vitro [8]): 956 mL/min/kg
- Papp B→A [9]: 5.61 ×10⁻⁶ cm/s
- Papp A→B [10]: 5.53 ×10⁻⁶ cm/s

SMILES: O=C(NC[C@H]1[C@H]2C[C@H](Oc3ccnc4ccc(F)cc34)C[C@@H]12)c1ccc(Cl)cc1
- CLint scaled at 0.75 h, 1 µM (in vitro [1]): 227 mL/min/kg

SMILES: CC(NC(=O)c1ccc(C#N)cc1)[C@H]1[C@@H]2C[C@@H](Oc3ncnc4cc(F)ccc34)C[C@@H]21 (some centres undefined)
- CLint scaled at 0.75 h, 1 µM (in vitro [1]): 17 mL/min/kg
- Vd (in vivo [11]): 0.31 L/kg
- clearance (in vivo [12]): 0.117 mL/min/kg
- AUC(0-inf) (in vivo [13]): 106 µM·h
- half-life (in vivo [14]): 33 h
- bioavailability (in vivo [15]): 62%
- Cmax (in vivo [16]): 44000 nM

SMILES: CCC(NC(=O)c1ccc(Cl)cc1)[C@H]1[C@@H]2C[C@@H](n3cnc4ncc(C#N)cc43)C[C@@H]21 (some centres undefined)
- CLint scaled at 0.75 h, 1 µM (in vitro [1]): 4.5 mL/min/kg

SMILES: CC[C@@H](NC(=O)c1ccc(C#N)cc1)[C@H]1[C@@H]2C[C@@H](n3cnc4cc(F)c(F)cc43)C[C@@H]21
- concentration at 120 h (in vivo [17]): 52000 nM
- concentration at 120 h (in vivo [18]): 49300 nM

SMILES: CCC(NC(=O)c1ccc(Cl)cc1)[C@H]1[C@@H]2C[C@@H](NC(=O)c3cncc(F)c3)C[C@@H]21 (some centres undefined)
- CLint scaled at 0.75 h, 1 µM (in vitro [1]): 13 mL/min/kg

SMILES: C[C@H](C(=O)Nc1ccc(Cl)cc1)[C@H]1CC[C@@H](c2ccnc3ccc(F)cc32)CC1
- concentration at 120 h (in vivo [2]): 900 nM
- Vd at 24 h (in vivo [19]): 4.5 L/kg
- concentration at 120 h (in vivo [3]): 20 nM
- AUC at 168 h [20]: 95 µM·h
- CLint scaled at 0.75 h, 1 µM (in vitro [1]): 28 mL/min/kg
- half-life at 24 h (in vivo [21]): 1.57 h
- AUC(0-inf) at 24 h (in vivo [22]): 0.37 µM·h
- concentration at 12 h [23]: 610 nM
- Cmax at 24 h (in vivo [24]): 4100 nM
- clearance at 24 h (in vivo [25]): 33.3 mL/min/kg
- concentration at 12 h [26]: 60 nM
- bioavailability at 24 h (in vivo [27]): 39%

SMILES: O=C(Nc1ccc(Cl)cc1)N1CCC(CCc2ccnc3ccccc23)CC1
- CLint scaled at 0.75 h, 1 µM (in vitro [1]): 115 mL/min/kg
- CLint scaled at 0.75 h, 1 µM (in vitro [8]): 170 mL/min/kg

SMILES: CC[C@@H](NC(=O)c1ccc(Cl)cc1)[C@H]1[C@@H]2C[C@@H](n3c(C)nc4ccc(F)cc43)C[C@@H]21
- concentration at 120 h (in vivo [2]): 100 nM
- concentration at 120 h (in vivo [3]): 10 nM

Second part, the compound after the results:

- CLint scaled at 0.75 h, 1 µM (in vitro [1]): 0.7 mL/min/kg
SMILES: CCC(NC(=O)c1ccc(Cl)cc1)[C@H]1[C@@H]2C[C@@H](n3cnc4cccc(F)c4c3=O)C[C@@H]21 (some centres undefined)

- concentration at 120 h (in vivo [2]): 12000 nM
- concentration at 120 h (in vivo [3]): 10100 nM
SMILES: CC[C@@H](NC(=O)c1ccc(Cl)cc1)[C@H]1[C@@H]2C[C@@H](n3cnc4ccc(C#N)cc43)C[C@@H]21

- CLint scaled at 0.75 h, 1 µM (in vitro [1]): 5.5 mL/min/kg
SMILES: CCC(NC(=O)c1ccc(Cl)cc1)[C@H]1[C@@H]2C[C@@H](n3cnc4cc(F)cc(F)c43)C[C@@H]21 (some centres undefined)

- CLint scaled at 0.75 h, 1 µM (in vitro [1]): 18 mL/min/kg
SMILES: CCC(NC(=O)c1ccc(Cl)cc1)[C@H]1[C@@H]2C[C@@H](n3cnc4ccc(F)c(F)c43)C[C@@H]21 (some centres undefined)

- CLint scaled at 0.75 h, 1 µM (in vitro [1]): 0.46 mL/min/kg
SMILES: CCC(NC(=O)c1ccc(Cl)cc1)[C@H]1[C@@H]2C[C@@H](n3cnc4cc(F)cnc43)C[C@@H]21 (some centres undefined)

- concentration at 120 h (in vivo [2]): 600 nM
- concentration at 120 h (in vivo [3]): 500 nM
SMILES: CC[C@@H](NC(=O)c1ccc(Cl)cc1)[C@H]1[C@@H]2C[C@@H](n3cnc4ccc(Cl)cc43)C[C@@H]21

Reference: ChEMBL document CHEMBL4842341, “Discovery of IACS-9779 and IACS-70465 as Potent Inhibitors Targeting Indoleamine 2,3-Dioxygenase 1 (IDO1) Apoenzyme” (J Med Chem, 2021)
